Assay results as given in patent publication US20210395217A1, “PESTICIDALLY ACTIVE AZOLE-AMIDE COMPOUNDS” (SYNGENTA PARTICIPATIONS AG, priority 2018, published 2021).

Key:
Type in all cases: in vivo
[1] = system: Diabrotica balteata; test: Example B1: Diabrotica balteata (corn root worm), maize sprouts sprayed, L2 larvae; settings: 96 h, application rate of 200 ppm, 4 days after infestation, read-out: control in at least one of the two categories (mortality or growth inhibition)
Description: Example B1: Diabrotica balteata (Corn Root Worm)
Maize sprouts placed onto an agar layer in 24-well microtiter plates were treated with aqueous test solutions prepared from 10′000 ppm DMSO stock solutions by spraying. After drying, the plates were infested with L2 larvae (6 to 10 per well). The samples were assessed for mortality and growth inhibition in comparison to untreated samples 4 days after infestation.
The following compounds gave an effect of at least 80% control in at least one of the two categories (mortality or growth inhibition) at an application rate of 200 ppm: […]

[2] = system: Chilo suppressalis; test: Example B3: Chilo suppressalis (striped rice stem borer), artificial diet, L2 larvae; settings: 144 h, application rate of 200 ppm, 6 days after infestation, read-out: control in at least one of the three categories (mortality, anti-feedant effect, or growth inhibition)
Description: Example B3: Chilo suppressalis (Striped Rice Stem Borer)
24-well microtiter plates with artificial diet were treated with aqueous test solutions prepared from 10′000 ppm DMSO stock solutions by pipetting. After drying, the plates were infested with L2 larvae (6-8 per well). The samples were assessed for mortality, anti-feeding effect, and growth inhibition in comparison to untreated samples 6 days after infestation. Control of Chilo suppressalis by a test sample is given when at least one of the categories mortality, anti-feedant effect, and growth inhibition is higher than the untreated sample.

[3] = system: Plutella xylostella; test: Example B4: Plutella xylostella (diamond back moth), artificial diet, 24-well, eggs; settings: 192 h, application rate of 200 ppm, 8 days after infestation, 24-well plates, read-out: control in at least one of the two categories (mortality or growth inhibition)
Description: Example B4: Plutella xylostella (Diamond Back Moth)
24-well microtiter plates with artificial diet were treated with aqueous test solutions prepared from 10′000 ppm DMSO stock solutions by pipetting. After drying, Plutella eggs were pipetted through a plastic stencil onto a gel blotting paper and the plate was closed with it. The samples were assessed for mortality and growth inhibition in comparison to untreated samples 8 days after infestation. The following compounds gave an effect of at least 80% control in at least one of the two categories (mortality or growth inhibition) at an application rate of 200 ppm: […]

[4] = system: Spodoptera littoralis; test: Example B7: Spodoptera littoralis (Egyptian cotton leaf worm), cotton leaf discs sprayed, L1 larvae; settings: foliar, 72 h, application rate of 200 ppm, 3 days after infestation, read-out: control in at least one of the three categories (mortality, anti-feedant effect, or growth inhibition)
Description: Example B7: Spodoptera littoralis (Egyptian Cotton Leaf Worm)
Cotton leaf discs were placed onto agar in 24-well microtiter plates and sprayed with aqueous test solutions prepared from 10′000 ppm DMSO stock solutions. After drying the leaf discs were infested with five L1 larvae. The samples were assessed for mortality, anti-feeding effect, and growth inhibition in comparison to untreated samples 3 days after infestation. Control of Spodoptera littoralis by a test sample is given when at least one of the categories mortality, anti-feedant effect, and growth inhibition is higher than the untreated sample.

[5] = system: Plutella xylostella; test: Example B10: Plutella xylostella (diamondback moth), artificial diet, 96-well, eggs; settings: 216 h, application rate of 500 ppm, 9 days after infestation, 96-well plates
Description: Example B10: Plutella xylostella (Diamondback Moth)
96-well microtiter plates containing artificial diet were treated with aqueous test solutions, prepared from 10′000 ppm DMSO stock solutions, by a liquid handling robot. After drying, eggs (˜30 per well) were infested onto a netted lid which was suspended above the diet. The eggs hatch and L1 larvae move down to the diet. The samples were assessed for mortality 9 days after infestation.
The following compounds gave an effect of at least 80% average mortality at an application rate of 500 ppm: […]

CC(NC(=O)c1cc(Br)cc(OC(F)F)c1)c1ncnn1-c1ccc(C#N)cn1 (centres unmarked) [Compound F1, 3-bromo-N-[1-[2-(5-cyano-2-pyridyl)-1,2,4-triazol-3-yl]ethyl]-5-( ) difluoromethoxy benzamide]
≥ 80%: percent control (mortality or growth inhibition) at 200 ppm [1] | percent control (mortality, anti-feedant effect or growth inhibition) at 200 ppm [2] | percent control (mortality or growth inhibition) at 200 ppm [3] | percent control (mortality, anti-feedant effect or growth inhibition) at 200 ppm [4] | mortality at 500 ppm [5]

CC(NC(=O)c1cc(C(F)(F)F)cc(C(F)(F)F)c1)c1ncnn1-c1ccc(C#N)cn1 (centres unmarked) [Compound F3, N-[1-[2-(5-cyano-2-pyridyl)-1,2,4-triazol-3-yl]ethyl]-3,5-bis(trifluoromethyl) benzamide]
≥ 80%: percent control (mortality or growth inhibition) at 200 ppm [1] | percent control (mortality, anti-feedant effect or growth inhibition) at 200 ppm [2] | percent control (mortality or growth inhibition) at 200 ppm [3] | percent control (mortality, anti-feedant effect or growth inhibition) at 200 ppm [4] | mortality at 500 ppm [5]

CC(NC(=O)c1cc(SC(F)(F)F)cc(C(F)(F)F)c1)c1ncnn1-c1ccc(C#N)cn1 (centres unmarked) [Compound F5, N-[1-[2-(5-cyano-2-pyridyl)-1,2,4-triazol-3-yl]ethyl]-3-(trifluoromethyl)-5-(trifluoromethylsulfanyl) benzamide]
≥ 80%: percent control (mortality or growth inhibition) at 200 ppm [1] | percent control (mortality, anti-feedant effect or growth inhibition) at 200 ppm [2] | percent control (mortality or growth inhibition) at 200 ppm [3] | percent control (mortality, anti-feedant effect or growth inhibition) at 200 ppm [4] | mortality at 500 ppm [5]

Cc1nc(C(C)NC(=O)c2cc(C(F)(F)F)cc(C(F)(F)F)c2)n(-c2ccc(C#N)cn2)n1 (centres unmarked) [Compound F7, N-[1-[2-(5-cyano-2-pyridyl)-5-methyl-1,2,4-triazol-3-yl]ethyl]-3,5-bis (trifluoromethyl) benzamide]
≥ 80%: percent control (mortality or growth inhibition) at 200 ppm [1] | percent control (mortality or growth inhibition) at 200 ppm [3] | percent control (mortality, anti-feedant effect or growth inhibition) at 200 ppm [4]

CC(NC(=O)c1cc(C(F)(F)F)cc(C(F)(F)F)c1)c1nc(C2CC2)nn1-c1ccc(C#N)cn1 (centres unmarked) [Compound F10, N-[1-[2-(5-cyano-2-pyridyl)-5-cyclopropyl-1,2,4-triazol-3-yl]ethyl]-3,5-bis(trifluoromethyl) benzamide]
≥ 80%: percent control (mortality or growth inhibition) at 200 ppm [1] | percent control (mortality, anti-feedant effect or growth inhibition) at 200 ppm [2] | percent control (mortality or growth inhibition) at 200 ppm [3] | percent control (mortality, anti-feedant effect or growth inhibition) at 200 ppm [4] | mortality at 500 ppm [5]

CC(NC(=O)c1cc(Br)cc(C(F)(F)F)c1)c1nc(C2CC2)nn1-c1ccc(C#N)cn1 (centres unmarked) [Compound F11, 3-bromo-N-[1-[2-(5-cyano-2-pyridyl)-5-cyclopropyl-1,2,4-triazol-3-yl]ethyl]-5-(trifluoromethyl) benzamide]
≥ 80%: percent control (mortality or growth inhibition) at 200 ppm [1] | percent control (mortality, anti-feedant effect or growth inhibition) at 200 ppm [2] | percent control (mortality or growth inhibition) at 200 ppm [3] | mortality at 500 ppm [5]

CC(NC(=O)c1cc(OC(F)F)cc(C(F)(F)F)c1)c1ncnn1-c1ccc(C#N)cn1 (centres unmarked) [Compound F13, N-[1-[2-(5-cyano-2-pyridyl)-1,2,4-triazol-3-yl]ethyl]-3-(difluoromethoxy)-5-(trifluoromethyl) benzamide]
≥ 80%: percent control (mortality or growth inhibition) at 200 ppm [1] | percent control (mortality or growth inhibition) at 200 ppm [3] | percent control (mortality, anti-feedant effect or growth inhibition) at 200 ppm [4]

CC(NC(=O)c1cc(Br)cc(C(F)(F)F)c1)c1ncnn1-c1ccc(C#N)cn1 (centres unmarked) [Compound F14, 3-bromo-N-[1-[2-(5-cyano-2-pyridyl)-1,2,4-triazol-3-yl]ethyl]-5-(trifluoromethyl) benzamide]
≥ 80%: percent control (mortality or growth inhibition) at 200 ppm [1] | percent control (mortality or growth inhibition) at 200 ppm [3] | percent control (mortality, anti-feedant effect or growth inhibition) at 200 ppm [4]

CC(NC(=O)c1cc(C(F)F)cc(C(F)(F)F)c1)c1ncnn1-c1ccc(C#N)cn1 (centres unmarked) [Compound F15, N-[1-[2-(5-cyano-2-pyridyl)-1,2,4-triazol-3-yl]ethyl]-3-(difluoromethyl)-5-(trifluoromethyl) benzamide]
≥ 80%: percent control (mortality or growth inhibition) at 200 ppm [1] | percent control (mortality, anti-feedant effect or growth inhibition) at 200 ppm [2] | percent control (mortality or growth inhibition) at 200 ppm [3] | percent control (mortality, anti-feedant effect or growth inhibition) at 200 ppm [4]

CC(NC(=O)c1cc(OC(F)(F)F)cc(C(F)(F)F)c1)c1ncnn1-c1ccc(C#N)cn1 (centres unmarked) [Compound F17, N-[1-[2-(5-cyano-2-pyridyl)-1,2,4-triazol-3-yl]ethyl]-3-(trifluoromethoxy)-5-(trifluoromethyl) benzamide]
≥ 80%: percent control (mortality or growth inhibition) at 200 ppm [1] | percent control (mortality, anti-feedant effect or growth inhibition) at 200 ppm [2] | percent control (mortality or growth inhibition) at 200 ppm [3] | percent control (mortality, anti-feedant effect or growth inhibition) at 200 ppm [4] | mortality at 500 ppm [5]

CC(NC(=O)c1cc(OCC(F)F)cc(C(F)(F)F)c1)c1ncnn1-c1ccc(C#N)cn1 (centres unmarked) [Compound F18, N-[1-[2-(5-cyano-2-pyridyl)-1,2,4-triazol-3-yl]ethyl]-3-(2,2-difluoroethoxy)-5-(trifluoromethyl) benzamide]
≥ 80%: percent control (mortality or growth inhibition) at 200 ppm [1] | percent control (mortality, anti-feedant effect or growth inhibition) at 200 ppm [2] | percent control (mortality or growth inhibition) at 200 ppm [3] | percent control (mortality, anti-feedant effect or growth inhibition) at 200 ppm [4] | mortality at 500 ppm [5]

CC(NC(=O)c1cc(Br)cc(OCC(F)(F)F)c1)c1ncnn1-c1ccc(C#N)cn1 (centres unmarked) [Compound F19, 3-bromo-N-[1-[2-(5-cyano-2-pyridyl)-1,2,4-triazol-3-yl]ethyl]-5-(2,2,2-trifluoroethoxy) benzamide]
≥ 80%: percent control (mortality, anti-feedant effect or growth inhibition) at 200 ppm [2] | percent control (mortality or growth inhibition) at 200 ppm [3] | percent control (mortality, anti-feedant effect or growth inhibition) at 200 ppm [4] | mortality at 500 ppm [5]

CC(NC(=O)c1cc(Br)cc(OCC(F)F)c1)c1ncnn1-c1ccc(C#N)cn1 (centres unmarked) [Compound F20, 3-bromo-N-[1-[2-(5-cyano-2-pyridyl)-1,2,4-triazol-3-yl]ethyl]-5-(2,2-difluoroethoxy) benzamide]
≥ 80%: percent control (mortality, anti-feedant effect or growth inhibition) at 200 ppm [2] | percent control (mortality or growth inhibition) at 200 ppm [3] | percent control (mortality, anti-feedant effect or growth inhibition) at 200 ppm [4] | mortality at 500 ppm [5]

CC(NC(=O)c1cc(Cl)cc(Cl)c1)c1ncnn1-c1ccc(C#N)cn1 (centres unmarked) [Compound F22, 3,5-dichloro-N-[1-[2-(5-cyano-2-pyridyl)-1,2,4-triazol-3-yl]ethyl]benzamide]
≥ 80%: percent control (mortality or growth inhibition) at 200 ppm [1] | percent control (mortality, anti-feedant effect or growth inhibition) at 200 ppm [2] | percent control (mortality or growth inhibition) at 200 ppm [3] | percent control (mortality, anti-feedant effect or growth inhibition) at 200 ppm [4]

CC(NC(=O)c1cc(Cl)cc(Br)c1)c1ncnn1-c1ccc(C#N)cn1 (centres unmarked) [Compound F23, 3-bromo-5-chloro-N-[1-[2-(5-cyano-2-pyridyl)-1,2,4-triazol-3-yl]ethyl]benzamide]
≥ 80%: percent control (mortality or growth inhibition) at 200 ppm [1] | percent control (mortality or growth inhibition) at 200 ppm [3] | percent control (mortality, anti-feedant effect or growth inhibition) at 200 ppm [4]
